Assay: Radiochemical purity by HPLC over time after radiolabelling
Format: physicochemical
Description: Table 1 to Table 5 show the results of various radiolabelling experiments on radiochemical purity and the chelation yield. The radiolabelling experiments in the tables are carried out as described in: • Example 1 for when the gallium-68 source is GE Liquid target generator and EZAG GalliaPharm generator; • Example 2 for when the gallium-68 source is IRE Galli Eo generator; • Example 3 for when the gallium-68 source is GE solid target generator;
However, the experiments were carried out with the amount of ascorbic acid as indicated in the Tables 1 to 5, and the activity as indicated in the Tables 1 to 5. Radiochemical purities were measured at various times (T0, T1, T4, T6) after the radiolabelled experiments have been conducted.
The kits of Example 1, Example 2 or Example 3, with amounts of ascorbic acid as set out in Table 7 were used in the experiments for the ascorbic acid bracketing matrix. Three strengths of [^68Ga]Ga-PSMA-11 will be tested, i.e. 50 mCi/ml, 7 mCi/ml and 1 mCi/ml. Radiochemical purity was determined at different time points (TO, T1, T4 or T6), as set out in Table 7.

O=C([O-])CN(CCN(CC(=O)[O-])Cc1cc(CCC(=O)NCCCCCC(=O)NCCCC[C@H](NC(=O)N[C@@H](CCC(=O)O)C(=O)O)C(=O)O)ccc1[O-])Cc1cc(CCC(=O)O)ccc1[O-].[68Ga+3].[OH3+] [[^68Ga]PSMA-11, gallium-68 radiolabelled Glu-urea-Lys-HBED-CC (gozetotide or PSMA-11)]
Radiochemical Purity (HPLC) Ga-68 PSMA-11 (%) (1 mg ascorbic acid, 58.7-71.1 mCi, 7.47-8.99 mCi/mL, GE Liquid target, average of 3, T0): 100%
Radiochemical Purity (HPLC) Ga-68 PSMA-11 (%) (1 mg ascorbic acid, 58.7-71.1 mCi, 7.47-8.99 mCi/mL, GE Liquid target, average of 3, T4 (4 h)): 100%
Radiochemical Purity (HPLC) Ga-68 PSMA-11 (%) (1 mg ascorbic acid, 58.7-71.1 mCi, 7.47-8.99 mCi/mL, GE Liquid target, n=3, T0): C (C = conforms to specifications)
Radiochemical Purity (HPLC) Ga-68 PSMA-11 (%) (1 mg ascorbic acid, 58.7-71.1 mCi, 7.47-8.99 mCi/mL, GE Liquid target, n=3, T4 (4 h)): C (C = conforms to specifications)
Radiochemical Purity (HPLC) Ga-68 PSMA-11 (%) (2.5 mg ascorbic acid, 49.9-76.9 mCi, 6.31-9.72 mCi/mL, GE Liquid target, average of 3, T0): 100%
Radiochemical Purity (HPLC) Ga-68 PSMA-11 (%) (2.5 mg ascorbic acid, 49.9-76.9 mCi, 6.31-9.72 mCi/mL, GE Liquid target, average of 3, T4 (4 h)): 100%
Radiochemical Purity (HPLC) Ga-68 PSMA-11 (%) (2.5 mg ascorbic acid, 49.9-76.9 mCi, 6.31-9.72 mCi/mL, GE Liquid target, n=3, T0): C (C = conforms to specifications)
Radiochemical Purity (HPLC) Ga-68 PSMA-11 (%) (2.5 mg ascorbic acid, 49.9-76.9 mCi, 6.31-9.72 mCi/mL, GE Liquid target, n=3, T4 (4 h)): C (C = conforms to specifications)
Radiochemical Purity (HPLC) Ga-68 PSMA-11 (%) (5 mg ascorbic acid, 60-69.9 mCi, 7.61-8.81 mCi/mL, 3 × GE Liquid Target, 3 × EZAG GalliaPharm, average of 6, T0): 100%
Radiochemical Purity (HPLC) Ga-68 PSMA-11 (%) (5 mg ascorbic acid, 60-69.9 mCi, 7.61-8.81 mCi/mL, 3 × GE Liquid Target, 3 × EZAG GalliaPharm, average of 6, T4 (4 h)): 100%
Radiochemical Purity (HPLC) Ga-68 PSMA-11 (%) (5 mg ascorbic acid, 60-69.9 mCi, 7.61-8.81 mCi/mL, 3 × GE Liquid Target, 3 × EZAG GalliaPharm, n=6, T0): C (C = conforms to specifications)
Radiochemical Purity (HPLC) Ga-68 PSMA-11 (%) (5 mg ascorbic acid, 60-69.9 mCi, 7.61-8.81 mCi/mL, 3 × GE Liquid Target, 3 × EZAG GalliaPharm, n=6, T4 (4 h)): C (C = conforms to specifications)
Radiochemical Purity (HPLC) Ga-68 PSMA-11 (%) (10 mg ascorbic acid, 514-520 mCi, 49.0-66.1 mCi/mL, GE Solid Target, average of 3, T0): 100%
Radiochemical Purity (HPLC) Ga-68 PSMA-11 (%) (10 mg ascorbic acid, 514-520 mCi, 49.0-66.1 mCi/mL, GE Solid Target, average of 3, T6 (6 h)): 100%
Radiochemical Purity (HPLC) Ga-68 PSMA-11 (%) (10 mg ascorbic acid, 514-520 mCi, 49.0-66.1 mCi/mL, GE Solid Target, n=3, T0): C (C = conforms to specifications)
Radiochemical Purity (HPLC) Ga-68 PSMA-11 (%) (10 mg ascorbic acid, 514-520 mCi, 49.0-66.1 mCi/mL, GE Solid Target, n=3, T6 (6 h)): C (C = conforms to specifications)
Radiochemical Purity (HPLC) Ga-68 PSMA-11 (%) (15 mg ascorbic acid, 10.0-18.4 mCi, 0.95-1.77 mCi/mL, 1 × EZAG GalliaPharm, 2 × IRE Galli Eo, average of 3, T0): 100%
Radiochemical Purity (HPLC) Ga-68 PSMA-11 (%) (15 mg ascorbic acid, 10.0-18.4 mCi, 0.95-1.77 mCi/mL, 1 × EZAG GalliaPharm, 2 × IRE Galli Eo, average of 3, T1 (1 h)): 100%
Radiochemical Purity (HPLC) Ga-68 PSMA-11 (%) (15 mg ascorbic acid, 10.0-18.4 mCi, 0.95-1.77 mCi/mL, 1 × EZAG GalliaPharm, 2 × IRE Galli Eo, n=3, T0): C (C = conforms to specifications)
Radiochemical Purity (HPLC) Ga-68 PSMA-11 (%) (15 mg ascorbic acid, 10.0-18.4 mCi, 0.95-1.77 mCi/mL, 1 × EZAG GalliaPharm, 2 × IRE Galli Eo, n=3, T1 (1 h)): C (C = conforms to specifications)
Radiochemical Purity (HPLC) Ga-68 PSMA-11 (%) (15 mg ascorbic acid, 23.7-47.6 mCi, 2.26-4.53 mCi/mL, 1 × EZAG GalliaPharm, 2 × IRE Galli Eo, average of 3, T0): 100%
Radiochemical Purity (HPLC) Ga-68 PSMA-11 (%) (15 mg ascorbic acid, 23.7-47.6 mCi, 2.26-4.53 mCi/mL, 1 × EZAG GalliaPharm, 2 × IRE Galli Eo, average of 3, T4 (4 h)): 100%
Radiochemical Purity (HPLC) Ga-68 PSMA-11 (%) (15 mg ascorbic acid, 23.7-47.6 mCi, 2.26-4.53 mCi/mL, 1 × EZAG GalliaPharm, 2 × IRE Galli Eo, n=3, T0): C (C = conforms to specifications)
Radiochemical Purity (HPLC) Ga-68 PSMA-11 (%) (15 mg ascorbic acid, 23.7-47.6 mCi, 2.26-4.53 mCi/mL, 1 × EZAG GalliaPharm, 2 × IRE Galli Eo, n=3, T4 (4 h)): C (C = conforms to specifications)
Radiochemical Purity (HPLC) Ga-68 PSMA-11 (%) (20 mg ascorbic acid, 514-544 mCi, 48.3-51.9 mCi/mL, GE Solid Target, average of 2, T0): 100%
Radiochemical Purity (HPLC) Ga-68 PSMA-11 (%) (20 mg ascorbic acid, 514-544 mCi, 48.3-51.9 mCi/mL, GE Solid Target, average of 2, T6 (6 h)): 100%
Radiochemical Purity (HPLC) Ga-68 PSMA-11 (%) (20 mg ascorbic acid, 514-544 mCi, 48.3-51.9 mCi/mL, GE Solid Target, n=2, T0): C (C = conforms to specifications)
Radiochemical Purity (HPLC) Ga-68 PSMA-11 (%) (20 mg ascorbic acid, 514-544 mCi, 48.3-51.9 mCi/mL, GE Solid Target, n=2, T6 (6 h)): C (C = conforms to specifications)
Radiochemical Purity (HPLC) Ga-68 PSMA-11 (%) (25 mg ascorbic acid, 19.5-20.0 mCi, 1.85-1.90 mCi/mL, EZAG GalliaPharm, average of 2, T0): 100%
Radiochemical Purity (HPLC) Ga-68 PSMA-11 (%) (25 mg ascorbic acid, 19.5-20.0 mCi, 1.85-1.90 mCi/mL, EZAG GalliaPharm, average of 2, T1 (1 h)): 100%
Radiochemical Purity (HPLC) Ga-68 PSMA-11 (%) (25 mg ascorbic acid, 19.5-20.0 mCi, 1.85-1.90 mCi/mL, EZAG GalliaPharm, n=2, T0): C (C = all results conform to specifications)
Radiochemical Purity (HPLC) Ga-68 PSMA-11 (%) (25 mg ascorbic acid, 19.5-20.0 mCi, 1.85-1.90 mCi/mL, EZAG GalliaPharm, n=2, T1 (1 h)): C (C = all results conform to specifications)
Radiochemical Purity (HPLC) Ga-68 PSMA-11 (%) (25 mg ascorbic acid, 23.3-24 mCi, 2.22-2.28 mCi/mL, IRE Galli Eo, average of 2, T0): 100%
Radiochemical Purity (HPLC) Ga-68 PSMA-11 (%) (25 mg ascorbic acid, 23.3-24 mCi, 2.22-2.28 mCi/mL, IRE Galli Eo, average of 2, T4 (4 h)): 100%
Radiochemical Purity (HPLC) Ga-68 PSMA-11 (%) (25 mg ascorbic acid, 23.3-24 mCi, 2.22-2.28 mCi/mL, IRE Galli Eo, n=2, T0): C (C = all results conform to specifications)
Radiochemical Purity (HPLC) Ga-68 PSMA-11 (%) (25 mg ascorbic acid, 23.3-24 mCi, 2.22-2.28 mCi/mL, IRE Galli Eo, n=2, T4 (4 h)): C (C = all results conform to specifications)
Radiochemical Purity (HPLC) Ga-68 PSMA-11 (%) (25 mg ascorbic acid, 46.0-46.1 mCi, 4.38-4.39 mCi/mL, EZAG GalliaPharm, average of 2, T0): 100%
Radiochemical Purity (HPLC) Ga-68 PSMA-11 (%) (25 mg ascorbic acid, 46.0-46.1 mCi, 4.38-4.39 mCi/mL, EZAG GalliaPharm, average of 2, T4 (4 h)): 100%
Radiochemical Purity (HPLC) Ga-68 PSMA-11 (%) (25 mg ascorbic acid, 46.0-46.1 mCi, 4.38-4.39 mCi/mL, EZAG GalliaPharm, n=2, T0): C (C = all results conform to specifications)
Radiochemical Purity (HPLC) Ga-68 PSMA-11 (%) (25 mg ascorbic acid, 46.0-46.1 mCi, 4.38-4.39 mCi/mL, EZAG GalliaPharm, n=2, T4 (4 h)): C (C = all results conform to specifications)
Radiochemical Purity (HPLC) Ga-68 PSMA-11 (%) (bracketing ~1 mCi/mL, 18.75 mg ascorbic acid, 8.9-11.5 mCi, 0.85-1.09 mCi/mL, IRE Galli Eo, average of 2, T0): 100%
Radiochemical Purity (HPLC) Ga-68 PSMA-11 (%) (bracketing ~1 mCi/mL, 18.75 mg ascorbic acid, 8.9-11.5 mCi, 0.85-1.09 mCi/mL, IRE Galli Eo, average of 2, T1 (1 h)): 100%
Radiochemical Purity (HPLC) Ga-68 PSMA-11 (%) (bracketing ~1 mCi/mL, 25 mg ascorbic acid, 8.8-12.7 mCi, 0.84-1.21 mCi/mL, 2 × IRE Galli Eo, average of 2, T0): 99%
Radiochemical Purity (HPLC) Ga-68 PSMA-11 (%) (bracketing ~1 mCi/mL, 25 mg ascorbic acid, 8.8-12.7 mCi, 0.84-1.21 mCi/mL, 2 × IRE Galli Eo, average of 2, T1 (1 h)): 100%
Radiochemical Purity (HPLC) Ga-68 PSMA-11 (%) (bracketing ~1 mCi/mL, 31.25 mg ascorbic acid, 15.2-26.9 mCi, 1.44-2.54 mCi/mL, EZAG GalliaPharm, average of 2, T0): 100%
Radiochemical Purity (HPLC) Ga-68 PSMA-11 (%) (bracketing ~1 mCi/mL, 31.25 mg ascorbic acid, 15.2-26.9 mCi, 1.44-2.54 mCi/mL, EZAG GalliaPharm, average of 2, T1 (1 h)): 100%
Radiochemical Purity (HPLC) Ga-68 PSMA-11 (%) (bracketing ~7 mCi/mL, 18.75 mg ascorbic acid, 51.0-58.0 mCi, 5.55-6.5 mCi/mL, IRE Galli Eo, average of 2, T0): 100%
Radiochemical Purity (HPLC) Ga-68 PSMA-11 (%) (bracketing ~7 mCi/mL, 18.75 mg ascorbic acid, 51.0-58.0 mCi, 5.55-6.5 mCi/mL, IRE Galli Eo, average of 2, T4 (4 h)): 100%
